Test results as given in ChEMBL document CHEMBL1132811, “Bisquaternary caracurine V derivatives as allosteric modulators of ligand binding to M2 acetylcholine receptors” (Bioorg Med Chem Lett, 2000).

Target: T1, Muscarinic acetylcholine receptor M2 (Sus scrofa, UniProt P06199)
T1 sequence (P06199 whole entry): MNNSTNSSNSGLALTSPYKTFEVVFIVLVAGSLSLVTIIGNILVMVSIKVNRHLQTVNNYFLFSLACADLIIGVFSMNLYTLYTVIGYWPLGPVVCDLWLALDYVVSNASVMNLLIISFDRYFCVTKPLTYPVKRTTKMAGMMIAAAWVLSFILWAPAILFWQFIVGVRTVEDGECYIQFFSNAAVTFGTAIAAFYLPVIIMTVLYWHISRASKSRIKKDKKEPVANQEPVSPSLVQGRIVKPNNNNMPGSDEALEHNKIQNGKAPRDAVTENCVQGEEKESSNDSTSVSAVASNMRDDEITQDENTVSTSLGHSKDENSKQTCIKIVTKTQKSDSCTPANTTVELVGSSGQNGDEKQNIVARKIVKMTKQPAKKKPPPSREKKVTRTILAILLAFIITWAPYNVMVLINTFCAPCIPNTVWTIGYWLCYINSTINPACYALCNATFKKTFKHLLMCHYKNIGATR
Assay: Allosteric inhibition of [3H]NMS (N-methyl-scopolamine) dissociation from porcine cardiac Muscarinic acetylcholine receptor M2

Structure (SMILES) | EC50 [nM]
C1=C2C[N@+]3(Cc4ccccc4)CC[C@]45c6ccccc6N6[C@@H]7OCC=C8C[N@+]9(Cc%10ccccc%10)CC[C@]%10%11c%12ccccc%12N([C@H](OC1)[C@@H]([C@H]64)[C@H]2C[C@@H]53)[C@H]%10[C@H]7[C@H]8C[C@@H]%119 | 69
C=CC[N+]12CCC34c5ccccc5N5[C@@H]6OCC=C7C[N+]8(CC=C)CCC9%10c%11ccccc%11N([C@@H]%11OCC=C(C1)[C@H](C[C@@H]32)[C@@H]%11[C@H]54)[C@H]9[C@H]6[C@H]7C[C@@H]%108 (some centres not stated) | 3
C1=C2CN3CCC45c6ccccc6N6[C@@H]7OCC=C8CN9CCC%10%11c%12ccccc%12N([C@H](OC1)[C@@H]([C@H]64)[C@H]2C[C@H]35)[C@H]%10[C@H]7[C@H]8C[C@H]9%11 (some centres not stated) | 1190
CCC[N+]12CCC34c5ccccc5N5[C@@H]6OCC=C7C[N+]8(CCC)CCC9%10c%11ccccc%11N([C@@H]%11OCC=C(C1)[C@H](C[C@@H]32)[C@@H]%11[C@H]54)[C@H]9[C@H]6[C@H]7C[C@@H]%108 (some centres not stated) | 30
C[N+]12CCC34c5ccccc5N5[C@@H]6OCC=C7C[N+]8(C)CCC9%10c%11ccccc%11N([C@@H]%11OCC=C(C1)[C@H](C[C@@H]32)[C@@H]%11[C@H]54)[C@H]9[C@H]6[C@H]7C[C@@H]%108 (some centres not stated) | 8
O=C1c2ccccc2C(=O)N1CCC[N+]12CCC34c5ccccc5N5[C@@H]6OCC=C7C[N+]8(CCCN9C(=O)c%10ccccc%10C9=O)CCC9%10c%11ccccc%11N([C@@H]%11OCC=C(C1)[C@H](C[C@@H]32)[C@@H]%11[C@H]54)[C@H]9[C@H]6[C@H]7C[C@@H]%108 (some centres not stated) | 376
O=[N+]([O-])c1ccc(C[N+]23CCC45c6ccccc6N6[C@@H]7OCC=C8C[N+]9(Cc%10ccc([N+](=O)[O-])cc%10)CCC%10%11c%12ccccc%12N([C@@H]%12OCC=C(C2)[C@H](C[C@@H]43)[C@@H]%12[C@H]65)[C@H]%10[C@H]7[C@H]8C[C@@H]%119)cc1 (some centres not stated) | 315
Brc1ccc(C[N+]23CCC45c6ccccc6N6[C@@H]7OCC=C8C[N+]9(Cc%10ccc(Br)cc%10)CCC%10%11c%12ccccc%12N([C@@H]%12OCC=C(C2)[C@H](C[C@@H]43)[C@@H]%12[C@H]65)[C@H]%10[C@H]7[C@H]8C[C@@H]%119)cc1 (some centres not stated) | 507
C1=C2C[N+]3(Cc4ccc5ccccc5c4)CCC45c6ccccc6N6[C@@H]7OCC=C8C[N+]9(Cc%10ccc%11ccccc%11c%10)CCC%10%11c%12ccccc%12N([C@H](OC1)[C@@H]([C@H]64)[C@H]2C[C@@H]53)[C@H]%10[C@H]7[C@H]8C[C@@H]%119 (some centres not stated) | 1560
FC(F)(F)c1ccc(C[N+]23CCC45c6ccccc6N6[C@@H]7OCC=C8C[N+]9(Cc%10ccc(C(F)(F)F)cc%10)CCC%10%11c%12ccccc%12N([C@@H]%12OCC=C(C2)[C@H](C[C@@H]43)[C@@H]%12[C@H]65)[C@H]%10[C@H]7[C@H]8C[C@@H]%119)cc1 (some centres not stated) | 1750
COc1ccc(C[N+]23CCC45c6ccccc6N6[C@@H]7OCC=C8C[N+]9(Cc%10ccc(OC)c(OC)c%10)CCC%10%11c%12ccccc%12N([C@@H]%12OCC=C(C2)[C@H](C[C@@H]43)[C@@H]%12[C@H]65)[C@H]%10[C@H]7[C@H]8C[C@@H]%119)cc1OC (some centres not stated) | 342
C#CC[N+]12CCC34c5ccccc5N5[C@@H]6OCC=C7C[N+]8(CC#C)CCC9%10c%11ccccc%11N([C@@H]%11OCC=C(C1)[C@H](C[C@@H]32)[C@@H]%11[C@H]54)[C@H]9[C@H]6[C@H]7C[C@@H]%108 (some centres not stated) | 4
